For two compounds, Kd results are on record in patent US7829588B2, “Modulators of the PPAR-type receptors and pharmaceutical/cosmetic applications thereof” (Galderma Research & Development, priority 2003, dated 2010).

For test [1], the target named is T1, PPARγ (Homo sapiens, UniProt P37231).
T1 construct: luciferase reporter plasmid ERE-βGlob-Luc-SV-Neo
T1 sequence (P37231 238-505 limits assumed): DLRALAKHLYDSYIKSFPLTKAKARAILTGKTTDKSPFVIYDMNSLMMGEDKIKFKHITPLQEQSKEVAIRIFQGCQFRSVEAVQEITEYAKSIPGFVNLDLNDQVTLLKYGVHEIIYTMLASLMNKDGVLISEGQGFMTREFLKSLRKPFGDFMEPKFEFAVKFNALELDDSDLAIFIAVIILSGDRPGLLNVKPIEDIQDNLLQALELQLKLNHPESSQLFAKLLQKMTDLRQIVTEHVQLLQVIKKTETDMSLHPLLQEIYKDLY
The experiment in a line: Cross curve PPAR transactivation test (luciferase reporter, HeLN cells), PPARγ. The class given is cell-based. The settings on record: HeLN cells stably transfected with Gal-hPPARγ and ERE-βGlob-Luc-SV-Neo; Schild regression against reference agonist; read-out: PPAR γ Kd app. On the procedure:
(§1) The activation of receptors with an agonist (activator) in HeLN cells leads to the expression of a reporter gene, luciferase, which, in the presence of a substrate, generates light. The modulation of the receptors is measured as quantity of luminescence produced after incubating the cells in the presence of a reference agonist. The ligands will displace the agonist from its site. The measurement of the activity is performed by quantification of the light produced. This measurement makes it possible to determine the modulatory activity of the compounds according to the invention by determining the constant which is the affinity of the molecule for the receptor. […]
(§2) The various dilutions of the test products and of the reference ligand are added in an amount of 5 μl per well. […] After 5 minutes, the plates are read by the luminescence reader.
(§3) These cross curves make it possible to determine the AC50 values (concentrations at which 50% activation is observed) for the reference ligand at various concentrations of test product. These AC50 values are used to calculate the Schild regression by plotting a straight line corresponding to the Schild equation (“Quantitation in Receptor Pharmacology” Terry P. Kenakin, Receptors and Channels, 2001, 7, 371-385) which leads to Kd app values being obtained (in nM).
Background: Reporter assays use an easily measured gene product as a stand-in for the process of interest.

The target of test [2] is T2, PPARα (Homo sapiens, UniProt Q07869).
T2 sequence (Q07869 200-468 limits assumed): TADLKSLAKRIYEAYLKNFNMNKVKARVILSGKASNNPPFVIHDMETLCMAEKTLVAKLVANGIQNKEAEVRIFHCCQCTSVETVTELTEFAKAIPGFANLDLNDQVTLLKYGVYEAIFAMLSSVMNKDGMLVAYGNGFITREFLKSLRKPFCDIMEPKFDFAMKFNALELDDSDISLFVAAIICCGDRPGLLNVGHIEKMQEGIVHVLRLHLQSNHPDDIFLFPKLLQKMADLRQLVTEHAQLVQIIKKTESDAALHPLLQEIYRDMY
Put plainly: Cross curve PPAR transactivation test (luciferase reporter, HeLN cells), PPARα. As to conditions: HeLN cells stably transfected with Gal-hPPARα and ERE-βGlob-Luc-SV-Neo; Schild regression against reference agonist; n.a. means not active; read-out: PPAR α Kd app. The class given is cell-based. On the procedure: as §1, §2, §3

Structures are written as SMILES.

With `CCCCCCCOc1cc(Sc2nnc(-c3ccc(C(C)(C)C)cc3)n2C)ccc1CNc1ccc(CC(=O)OCC)cc1` [Example 1, Ethyl(4-{4-[5-(4-tert-butylphenyl)-4-methyl-4H-[1,2,4]-triazol-3-ylsulfanyl]-2-heptyloxybenzylamino}phenyl)acetate], the Kd in test [1] turned out to be 60 nM. Take `CCCCCCCOc1cc(Sc2nnc(-c3ccc(C(C)(C)C)cc3)n2C)ccc1CNc1ccc(CC(=O)O)cc1` [Example 2, (4-{4-[5-(4-tert-Butylphenyl)-4-methyl-4H-[1,2,4]-triazol-3-ylsulfanyl]-2-heptyloxybenzylamino}phenyl)acetic acid]: the Kd in test [2] was determined as 8000 nM; in test [1], 15 nM.
